Legend:
[1] = Effect of MgCl2 on hydrolysis of MBC-11 in solution (formation of Ara-CMP at 25° C.); type: physicochemical; conditions: for Content of Ara-CMP (%): 25° C.
Procedure: Studies were performed, where magnesium chloride was investigated as a stabilizer against hydrolytic decomposition. MgCl2 was added to solutions of MBC-11 conjugate in water, tartrate buffer (50 mmol/L, pH 5) and succinate buffer (50 mmol/L, pH 5). The following molar ratios of MgCl2 to MBC-11 were used: (1:2), (1:1), (2:1) and higher (˜12:1). […]

[2] = Hydrolysis rate constant with MgCl2 or CaCl2 as stabilizer; type: physicochemical; conditions: for hydrolysis rate constant (K): in water
From the text: The use of calcium chloride as a stabilizer against hydrolytic decomposition in both buffer solutions and water was also investigated; the hydrolysis rate constant was compared with the constant for MgCl2. […] If molar ratios were less than 2:1, the hydrolysis rate was lower for solutions containing MgCl2.

CC(O)(P(=O)(O)O)P(=O)(O)OP(=O)(O)OC[C@H]1O[C@@H](n2ccc(N)nc2=O)[C@@H](O)[C@@H]1O (some centres unmarked) [MBC-11]
Content of Ara-CMP (%) ([1]; Succinate buffer, MgCl2 20 mmol/L, MgCl2:MBC-11 ~12:1, t = 4 h): 2.7%
Content of Ara-CMP (%) ([1]; Succinate buffer, MgCl2 20 mmol/L, MgCl2:MBC-11 ~12:1, t = 8 h): 2.9%
Content of Ara-CMP (%) ([1]; Succinate buffer, MgCl2 20 mmol/L, MgCl2:MBC-11 ~12:1, t = 24 h): 3.6%
Content of Ara-CMP (%) ([1]; Succinate buffer, no MgCl2, t = 0 h): 3.5%
Content of Ara-CMP (%) ([1]; Succinate buffer, no MgCl2, t = 4 h): 5.0%
Content of Ara-CMP (%) ([1]; Succinate buffer, no MgCl2, t = 8 h): 6.4%
Content of Ara-CMP (%) ([1]; Succinate buffer, no MgCl2, t = 24 h): 11.5%
Content of Ara-CMP (%) ([1]; Tartrate buffer, MgCl2 0.87 mmol/L, MgCl2:MBC-11 1:2, t = 0 h): 2.5%
Content of Ara-CMP (%) ([1]; Tartrate buffer, MgCl2 0.87 mmol/L, MgCl2:MBC-11 1:2, t = 4 h): 3.5%
Content of Ara-CMP (%) ([1]; Tartrate buffer, MgCl2 0.87 mmol/L, MgCl2:MBC-11 1:2, t = 8 h): 4.5%
Content of Ara-CMP (%) ([1]; Tartrate buffer, MgCl2 0.87 mmol/L, MgCl2:MBC-11 1:2, t = 24 h): 8.4%
Content of Ara-CMP (%) ([1]; Tartrate buffer, MgCl2 1.73 mmol/L, MgCl2:MBC-11 1:1, t = 0 h): 2.6%
Content of Ara-CMP (%) ([1]; Tartrate buffer, MgCl2 1.73 mmol/L, MgCl2:MBC-11 1:1, t = 4 h): 3.3%
Content of Ara-CMP (%) ([1]; Tartrate buffer, MgCl2 1.73 mmol/L, MgCl2:MBC-11 1:1, t = 8 h): 4.1%
Content of Ara-CMP (%) ([1]; Tartrate buffer, MgCl2 1.73 mmol/L, MgCl2:MBC-11 1:1, t = 24 h): 7.3%
Content of Ara-CMP (%) ([1]; Tartrate buffer, MgCl2 3.5 mmol/L, MgCl2:MBC-11 2:1, t = 0 h): 2.5%
Content of Ara-CMP (%) ([1]; Tartrate buffer, MgCl2 3.5 mmol/L, MgCl2:MBC-11 2:1, t = 4 h): 3.0%
Content of Ara-CMP (%) ([1]; Tartrate buffer, MgCl2 3.5 mmol/L, MgCl2:MBC-11 2:1, t = 8 h): 3.5%
Content of Ara-CMP (%) ([1]; Tartrate buffer, MgCl2 3.5 mmol/L, MgCl2:MBC-11 2:1, t = 24 h): 5.5%
Content of Ara-CMP (%) ([1]; Tartrate buffer, MgCl2 20 mmol/L, MgCl2:MBC-11 ~12:1, t = 0 h): 2.6%
Content of Ara-CMP (%) ([1]; Tartrate buffer, MgCl2 20 mmol/L, MgCl2:MBC-11 ~12:1, t = 4 h): 2.7%
Content of Ara-CMP (%) ([1]; Tartrate buffer, MgCl2 20 mmol/L, MgCl2:MBC-11 ~12:1, t = 8 h): 3.0%
Content of Ara-CMP (%) ([1]; Tartrate buffer, MgCl2 20 mmol/L, MgCl2:MBC-11 ~12:1, t = 24 h): 3.8%
Content of Ara-CMP (%) ([1]; Tartrate buffer, no MgCl2, t = 0 h): 3.8%
Content of Ara-CMP (%) ([1]; Tartrate buffer, no MgCl2, t = 4 h): 5.3%
Content of Ara-CMP (%) ([1]; Tartrate buffer, no MgCl2, t = 8 h): 6.6%
Content of Ara-CMP (%) ([1]; Tartrate buffer, no MgCl2, t = 24 h): 11.7%
Content of Ara-CMP (%) ([1]; Water, MgCl2 0.87 mmol/L, MgCl2:MBC-11 1:2, t = 0 h): 2.6%
Content of Ara-CMP (%) ([1]; Water, MgCl2 0.87 mmol/L, MgCl2:MBC-11 1:2, t = 4 h): 3.3%
Content of Ara-CMP (%) ([1]; Water, MgCl2 0.87 mmol/L, MgCl2:MBC-11 1:2, t = 8 h): 4.0%
Content of Ara-CMP (%) ([1]; Water, MgCl2 0.87 mmol/L, MgCl2:MBC-11 1:2, t = 24 h): 6.8%
Content of Ara-CMP (%) ([1]; Water, MgCl2 1.73 mmol/L, MgCl2:MBC-11 1:1, t = 0 h): 2.5%
Content of Ara-CMP (%) ([1]; Water, MgCl2 1.73 mmol/L, MgCl2:MBC-11 1:1, t = 4 h): 2.8%
Content of Ara-CMP (%) ([1]; Water, MgCl2 1.73 mmol/L, MgCl2:MBC-11 1:1, t = 8 h): 3.2%
Content of Ara-CMP (%) ([1]; Water, MgCl2 1.73 mmol/L, MgCl2:MBC-11 1:1, t = 24 h): 4.6%
Content of Ara-CMP (%) ([1]; Water, MgCl2 3.5 mmol/L, MgCl2:MBC-11 2:1, t = 0 h): 2.7%
Content of Ara-CMP (%) ([1]; Water, MgCl2 3.5 mmol/L, MgCl2:MBC-11 2:1, t = 4 h): 2.7%
Content of Ara-CMP (%) ([1]; Water, MgCl2 3.5 mmol/L, MgCl2:MBC-11 2:1, t = 8 h): 2.9%
Content of Ara-CMP (%) ([1]; Water, MgCl2 3.5 mmol/L, MgCl2:MBC-11 2:1, t = 24 h): 3.7%
Content of Ara-CMP (%) ([1]; Water, MgCl2 20 mmol/L, MgCl2:MBC-11 ~12:1, t = 0 h): 2.6%
Content of Ara-CMP (%) ([1]; Water, MgCl2 20 mmol/L, MgCl2:MBC-11 ~12:1, t = 4 h): 2.7%
Content of Ara-CMP (%) ([1]; Water, MgCl2 20 mmol/L, MgCl2:MBC-11 ~12:1, t = 8 h): 2.9%
Content of Ara-CMP (%) ([1]; Water, MgCl2 20 mmol/L, MgCl2:MBC-11 ~12:1, t = 24 h): 3.5%
increase in Ara-CMP content ([1]; previous observations (before addition of MgCl2), 8 hours at 25° C.): ~2%
slowdown in the hydrolysis reaction ([2]; divalent metal salts added to aqueous solution in molar ratio 2:1): 90%
hydrolysis rate constant (K) ([2]; molar ratio CaCl2 to MBC-11 2:1): 0.0005
hydrolysis rate constant (K) ([2]; molar ratio MgCl2 to MBC-11 2:1): 0.0005

Reference: patent publication US11219603B2, “Stable dosage form of etidronate-cytarabine conjugate, and use thereof” (MAXWELL BIOTECH GROUP LTD., priority 2015, dated 2022)
